Data set [1] in a line: Solubility of the compound in DMSO. Type of data set: physicochemical.
In data set [2] the test system is A253 cell line. Put plainly: Cytotoxicity against human A253 cells assessed as cell survival at 40 uM after 96 hrs by sulforhodamine B assay relative to control. In kind it is functional. Particulars: A253, 96 h, read-out: Survival. A general note: Sulforhodamine B stains cellular protein and so reports cell mass.
In data set [3] the target is T1, Acetylcholinesterase (Electrophorus electricus, UniProt O42275). In words: Competitive inhibition of electric eel AChE assessed as inhibition constant for enzyme-substrate-inhibitor complex preincubated for 20 mins followed by acetylthiocholine iodide substrate addition and measured for 30 mins at 1 min intervals by Ellman's method. On the technique in general: Ellman's reagent forms a yellow product with free thiols.

Data set [4] can be described thus: Cytotoxicity against mouse NIH/3T3 cells assessed as cell survival at 40 uM after 96 hrs by sulforhodamine B assay relative to control. Type of data set: cell-based, NIH3T3. Particulars: read-out: Survival.
In data set [5] the test system is FaDu. Put plainly: Cytotoxicity against human FADU cells assessed as cell survival at 40 uM after 96 hrs by sulforhodamine B assay relative to control. Particulars: read-out: Survival. In kind it is functional.
Data set [6] relates to MCF7. In words: Cytotoxicity against human MCF7 cells assessed as cell survival at 40 uM after 96 hrs by sulforhodamine B assay relative to control. In kind it is functional. To be noted: MCF7, 96 h, read-out: Survival.
Data set [7] deals with HT-29. In words: Cytotoxicity against human HT-29 cells assessed as cell survival at 40 uM after 96 hrs by sulforhodamine B assay relative to control. Type of data set: functional. To be noted: HT-29, 96 h, read-out: Survival.
In data set [8] the target is T1, Acetylcholinesterase. Put plainly: Competitive inhibition of electric eel AChE assessed as inhibition constant for enzyme inhibitor complex preincubated for 20 mins followed by acetylthiocholine iodide substrate addition and measured for 30 mins at 1 min intervals by Ellman's method.
Data set [9] concerns SW-1736. In words: Cytotoxicity against human SW1736 cells assessed as cell survival at 40 uM after 96 hrs by sulforhodamine B assay relative to control. In kind it is functional. To be noted: SW-1736, 96 h, read-out: Survival.
A short description of data set [10]: Cytotoxicity against mouse NIH/3T3 cells assessed as cell survival at 60 uM after 96 hrs by sulforhodamine B assay relative to control. In kind it is cell-based, NIH3T3. To be noted: read-out: Survival.
The subject of data set [11] is FaDu. Put plainly: Cytotoxicity against human FADU cells assessed as cell survival at 60 uM after 96 hrs by sulforhodamine B assay relative to control. In kind it is functional. To be noted: read-out: Survival.
Data set [12] concerns SW-1736. In words: Cytotoxicity against human SW1736 cells assessed as cell survival at 60 uM after 96 hrs by sulforhodamine B assay relative to control. Type of data set: functional. Particulars: SW-1736, 96 h, read-out: Survival.
Data set [13] concerns MCF7. In words: Cytotoxicity against human MCF7 cells assessed as cell survival at 60 uM after 96 hrs by sulforhodamine B assay relative to control. In kind it is functional. Particulars: MCF7, 96 h, read-out: Survival.
For data set [14], the system named is A253 cell line. Put plainly: Cytotoxicity against human A253 cells assessed as cell survival at 60 uM after 96 hrs by sulforhodamine B assay relative to control. Particulars: A253, 96 h, read-out: Survival. In kind it is functional.
Data set [15] relates to HT-29. Put plainly: Cytotoxicity against human HT-29 cells assessed as cell survival at 60 uM after 96 hrs by sulforhodamine B assay relative to control. To be noted: HT-29, 96 h, read-out: Survival. In kind it is functional.

T1 sequence (O42275 whole entry): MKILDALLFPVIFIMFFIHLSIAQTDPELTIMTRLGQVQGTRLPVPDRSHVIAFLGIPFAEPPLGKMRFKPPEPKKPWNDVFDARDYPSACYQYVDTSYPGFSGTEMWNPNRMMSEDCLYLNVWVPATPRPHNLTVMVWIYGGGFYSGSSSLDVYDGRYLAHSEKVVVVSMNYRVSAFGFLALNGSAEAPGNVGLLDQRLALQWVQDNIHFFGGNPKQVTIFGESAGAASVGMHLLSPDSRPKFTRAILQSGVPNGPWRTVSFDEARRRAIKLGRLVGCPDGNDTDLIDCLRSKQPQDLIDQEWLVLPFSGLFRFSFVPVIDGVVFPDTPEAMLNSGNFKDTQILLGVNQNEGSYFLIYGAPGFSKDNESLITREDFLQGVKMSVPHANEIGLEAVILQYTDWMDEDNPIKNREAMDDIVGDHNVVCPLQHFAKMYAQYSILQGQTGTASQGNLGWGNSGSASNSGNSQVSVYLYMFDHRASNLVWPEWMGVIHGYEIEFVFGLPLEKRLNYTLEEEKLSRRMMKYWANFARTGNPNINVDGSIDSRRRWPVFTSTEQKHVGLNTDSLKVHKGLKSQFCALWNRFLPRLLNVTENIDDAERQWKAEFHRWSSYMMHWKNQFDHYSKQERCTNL

In the case of `CCCCCCCCCCCCCCCCC/C=C/C(=O)N1CCCC1`, in [1], the solubility entry is given as “Insoluble”.
As to `CCCCCCCCCCCCC/C=C/C(=O)N1CCCCC1`, the viability at 40 µM with A253 cell line [2] amounted to 57%; in the data set on FaDu [5], 90%; in the data set on MCF7 [6], 40%; in the data set with HT-29 [7], 47%; in the data set with SW-1736 [9] it was 77%. Further, the results for the Ki on Acetylcholinesterase [3] and on Acetylcholinesterase [8] were more than 50 µM and 7.45 µM, respectively. The viability at 96 h, 40 µM in data set [4] is 80%.
Regarding `CCCCCCCCCCCCCCC/C=C/C(=O)N1CCCC1`, the solubility entry in data set [1] is given as “Insoluble”.
Regarding `CCCCCCCCCCCCC/C=C/C(=O)N1CCCCCCC1`, the viability at 40 µM turned out to be 40% with A253 cell line [2]; 61% with FaDu [5]; 27% with MCF7 [6]; 15% in the data set with HT-29 [7]; 43% in the data set with SW-1736 [9]. The Ki is 23.3 µM on Acetylcholinesterase [3] and 2.04 µM on Acetylcholinesterase [8]. Also, the viability at 96 h, 40 µM in data set [4] is 50%.
Take `CCCCCCCCCCC/C=C/C(=O)N1CCCCCC1`: in data set [10], the viability at 96 h, 60 µM was 63%. Further, the viability at 60 µM came to 85% in the data set on FaDu [11]; 80% in the data set with SW-1736 [12]; 35% in the data set on MCF7 [13]; 63% in the data set with A253 cell line [14]; 57% with HT-29 [15]. Besides, the Ki was 45.4 µM at Acetylcholinesterase [3] and 9.99 µM at Acetylcholinesterase [8].
Regarding `CCCCCCCCCCC/C=C/C(=O)N1CCC1`, the viability at 96 h, 60 µM in data set [10] came out at 80%. Moreover, the viability at 60 µM in the data set with FaDu [11] stood at 95%; in the data set on SW-1736 [12], 89%; with MCF7 [13], 59%; with A253 cell line [14], 77%; in the data set with HT-29 [15] it was 84%.
In the case of `CCCCCCCCCCCCCCCCC/C=C/C(=O)N1CCCCCC1`, the solubility entry in data set [1] is listed as “Insoluble”.
As for `CCCCCCCCCCCCC/C=C/C(=O)N1CCC1`, the viability at 40 µM is 69% with A253 cell line [2]; 96% with FaDu [5]; 62% with MCF7 [6]; 71% with HT-29 [7]; 88% with SW-1736 [9]. The viability at 96 h, 40 µM in [4] is 92%.
Regarding `CCCCCCCCCCCCCCC/C=C/C(=O)N1CCCCCCC1`, the viability at 96 h, 60 µM in data set [10] stood at 75%. Besides, the viability at 60 µM came out at 93% in the data set on FaDu [11]; 81% in the data set with SW-1736 [12]; 83% with MCF7 [13]; 80% with A253 cell line [14]; 69% in the data set with HT-29 [15]. Moreover, the Ki at Acetylcholinesterase [3] is more than 50 µM; on Acetylcholinesterase [8], 5.09 µM.
For the molecule `CCCCCCCCCCCCCCCCC/C=C/C(=O)N1CCC1`, the solubility entry in data set [1] is “Insoluble”.
Take `CCCCCCCCCCC/C=C/C(=O)N1CCCC1`: the viability at 96 h, 60 µM in data set [10] was found to be 78%. In addition, the viability at 60 µM in the data set with FaDu [11] was 96%; with SW-1736 [12] it was 99%; in the data set with MCF7 [13] it was 69%; in the data set on A253 cell line [14] it was 86%; with HT-29 [15], 86%.
Turning to `CCCCCCCCCCCCC/C=C/C(=O)N1CCCCCC1`, the viability at 40 µM in the data set with A253 cell line [2] was 46%; with FaDu [5], 77%; with MCF7 [6], 27%; in the data set with HT-29 [7], 22%; in the data set on SW-1736 [9], 61%. Moreover, the Ki amounted to 81.9 µM on Acetylcholinesterase [3] and 3.41 µM on Acetylcholinesterase [8]. Further, the viability at 96 h, 40 µM in data set [4] worked out at 69%.
In the case of `CCCCCCCCCCC/C=C/C(=O)N1CCCCCCC1`, in [10], the viability at 96 h, 60 µM worked out at 70%. The viability at 60 µM in the data set with FaDu [11] worked out at 84%; in the data set with SW-1736 [12], 76%; in the data set on MCF7 [13], 40%; in the data set on A253 cell line [14], 57%; with HT-29 [15], 52%. Besides, the values for the Ki on Acetylcholinesterase [3] and on Acetylcholinesterase [8] were 23 µM and 6.83 µM, respectively.
Turning to `CCCCCCCCCCCCCCC/C=C/C(=O)N1CCC1`, in data set [1], the solubility entry is listed as “Insoluble”.
On the same count and under the same terms, to `CCCCCCCCCCCCCCCCC/C=C/C(=O)N1CCCCC1` belongs “Insoluble”.
For `CCCCCCCCCCCCC/C=C/C(=O)N1CCCC1`, the viability at 40 µM is 44% in the data set with A253 cell line [2]; 79% in the data set on FaDu [5]; 24% with MCF7 [6]; 24% in the data set with HT-29 [7]; 42% in the data set with SW-1736 [9]. The viability at 96 h, 40 µM in data set [4] was determined as 60%.
As for `CCCCCCCCCCCCCCC/C=C/C(=O)N1CCCCCC1`, the viability at 96 h, 60 µM in data set [10] turned out to be 74%. Further, the viability at 60 µM in the data set with FaDu [11] stood at 94%; in the data set on SW-1736 [12], 86%; with MCF7 [13], 75%; in the data set on A253 cell line [14] it was 88%; in the data set on HT-29 [15], 76%. Besides, the Ki on Acetylcholinesterase [3] is 41.5 µM; at Acetylcholinesterase [8], 3.16 µM.
In the case of `CCCCCCCCCCCCCCC/C=C/C(=O)N1CCCCC1`, the solubility entry in data set [1] is given as “Insoluble”.
`CCCCCCCCCCC/C=C/C(=O)N1CCCCC1`: the viability at 40 µM in the data set on A253 cell line [2] stood at 67%; with FaDu [5], 97%; in the data set on MCF7 [6], 51%; in the data set with HT-29 [7] it was 68%; in the data set with SW-1736 [9], 63%. Also, in data set [4], the viability at 96 h, 40 µM was 74%.
Consider `CCCCCCCCCCCCCCCCC/C=C/C(=O)N1CCCCCCC1`, for which the solubility entry in data set [1] was “Insoluble”.

As a reminder, the Ki is the dissociation constant of the complex between target and ligand, obtained from inhibition or displacement.

(Values after ChEMBL document CHEMBL4190319, “Piperlongumine B and analogs are promising and selective inhibitors for acetylcholinesterase” (Eur J Med Chem, 2017).)
